Structures are written as SMILES.

The data set is described as follows: Human HepG2 cell viability assay in 384 well format. It counts as toxicity, cell-based. Also on record: dose 125 nL, time 70.5 hour; concentration not given beside the values. To be noted: HepG2 cells, read-out: Inhibition.
As for `O=C(CCc1nc2cccnc2[nH]1)NCc1ccncc1`, the cytotoxicity at 70.5 h was -19.4%.

`Cn1c(CN2CCCCCC2)cc(=O)c(O)c1CN1CCCC1`: the cytotoxicity at 70.5 h turned out to be 51.6%.

Consider `Cn1c(C(=O)Nc2nc[nH]n2)cc2ccccc21`, for which the cytotoxicity at 70.5 h amounted to 10.4%.

Turning to `O=C(CCCNC(=O)c1cnccn1)Nc1ncc[nH]1`, the cytotoxicity at 70.5 h was -27.2%.

With `COCCn1ccc2c(C(=O)NCC3CCCO3)cccc21` (stereo not drawn), the cytotoxicity at 70.5 h is -8.34%.

As for `COCCn1cc(CC(=O)Nc2nc[nH]n2)c2ccccc21`, the cytotoxicity at 70.5 h was -6.37%.

In the case of `COc1ccc2cc(NC(=O)CCCNc3ncccn3)cnc2c1`, the cytotoxicity at 70.5 h is -30.3%.

`Cc1c(C2SCC(=O)Nc3c2c(O)nn3C2CCCCC2)cnn1C` (stereo not drawn): the cytotoxicity at 70.5 h was -24.4%.

With `O=C1CSC(C(F)(F)F)c2c(O)nn(C3CCCC3)c2N1` (stereo not drawn), the cytotoxicity at 70.5 h was -22.6%.

Turning to `CC(C)C1SCC(=O)Nc2c1cnn2-c1ccc(Cl)cc1` (stereo not drawn), the cytotoxicity at 70.5 h is -1.66%.

`O=C(CCN1C(=O)CC2(CCCC2)C1=O)NCCc1nccs1`: the cytotoxicity at 70.5 h is -22.6%.

As for `Cc1nn(C)cc1C1SCC(=O)Nc2c1c(O)nn2C(C)C` (stereo not drawn), the cytotoxicity at 70.5 h was -31.1%.

On to `COCCn1cc(C(=O)NC2CCS(=O)(=O)C2)c2ccccc2c1=O` (stereo not drawn), for which the cytotoxicity at 70.5 h was -14.8%.

In the case of `O=C(NCCc1nccs1)[C@H](c1ccccc1)n1cnnn1`, the cytotoxicity at 70.5 h was -5.33%.

Turning to `Cn1cc(-c2nnc3sc(C4CC4)nn23)cn1`, the cytotoxicity at 70.5 h is -4.13%.

With `O=C(CCc1nc2cc(Br)cnc2[nH]1)NCCCn1ccnc1`, the cytotoxicity at 70.5 h is -17.5%.

Take `CC(C)(C)C1SCC(=O)Nc2c1c(O)nn2C1CCCC1` (stereo not drawn): the cytotoxicity at 70.5 h is -21.9%.

For the compound `COCCn1cc(C(=O)Nc2nc3c(s2)CCC3)c2ccccc21`, the cytotoxicity at 70.5 h is 37%.

Regarding `Cc1nn2c(-c3snnc3C)nnc2s1`, the cytotoxicity at 70.5 h was 27.8%.

Take `COc1cccc(-c2cc(C(=O)Nc3nc[nH]n3)[nH]n2)c1`: the cytotoxicity at 70.5 h was -11.1%.

`Cc1cc(-c2nn3c(C4CC4)nnc3s2)on1`: the cytotoxicity at 70.5 h was 12.2%.

In the case of `COc1ccc(-c2cc(C(=O)Nc3nc[nH]n3)[nH]n2)cc1`, the cytotoxicity at 70.5 h is -12.1%.

For the compound `Cn1ccc2c(C(=O)NCCCN3CCOCC3)cccc21`, the cytotoxicity at 70.5 h stood at 11.5%.

In the case of `Cn1cnc2cc(CCC(=O)Nc3nc[nH]n3)ccc21`, the cytotoxicity at 70.5 h was -0.94%.

Turning to `COc1ccc2c(c1)c(C(=O)Nc1cc(C)n(C)n1)cn2C(C)C`, the cytotoxicity at 70.5 h is -0.21%.

As to `COCCn1ccc2c(NC(=O)c3n[nH]c4c3CCCC4)cccc21`, the cytotoxicity at 70.5 h was determined as 7.53%.

For the compound `COc1ccc2c(ccn2CCC(=O)Nc2nc[nH]n2)c1`, the cytotoxicity at 70.5 h turned out to be 0.0223%.

With `CSCCC(Nc1nc(C)cc(C)n1)C(=O)NC1CC1` (stereo not drawn), the cytotoxicity at 70.5 h is -10.9%.

On to `O=C(C1CC(=O)N(c2n[nH]c3cc(Br)ccc23)C1)N1CCCC1` (stereo not drawn), for which the cytotoxicity at 70.5 h was -9.16%.

Take `Cc1nnsc1-c1nnc2sc(C(C)C)nn12`: the cytotoxicity at 70.5 h is 3.22%.

As to `COCCn1cc(CC(=O)Nc2c(C)nn(C)c2C)c2ccccc21`, the cytotoxicity at 70.5 h was -5.58%.

`Cc1ccc(C(=O)NC2CC2)c(-n2cnnn2)c1C`: the cytotoxicity at 70.5 h is -17.7%.

In the case of `COC(=O)c1ccc(C2SCC(=O)Nc3c2cnn3C2CCCC2)cc1` (stereo not drawn), the cytotoxicity at 70.5 h was -12.4%.

`COc1cccc2c1ccn2CC(=O)Nc1nc[nH]n1`: the cytotoxicity at 70.5 h was -11.8%.

Consider `Cc1cc(O)cc(=O)n1CCCC(=O)Nc1n[nH]c2cccc(F)c12`, for which the cytotoxicity at 70.5 h is -16.5%.

With `CC(C)c1sc(Br)nc1C(=O)NCc1ccncc1`, the cytotoxicity at 70.5 h amounted to 23%.

As to `Cc1ncc(CNC(C)(C)CO)c2cc(C(=O)c3ccc(Br)cc3)oc12`, the cytotoxicity at 70.5 h was -14.3%.

For the compound `CC(C)OCCCNC(=O)C1CC(=O)N(c2n[nH]c3cccc(F)c23)C1` (stereo not drawn), the cytotoxicity at 70.5 h was -23.7%.

Regarding `O=C(CCc1nnc2ccccn2c1=O)NCc1ccco1`, the cytotoxicity at 70.5 h was determined as 24.6%.

For the compound `CC(C)Cn1cnc2ccc(NC(=O)CCCn3cccn3)cc2c1=O`, the cytotoxicity at 70.5 h is -2.92%.

`O=C1CSC(c2ccc(O)cc2)c2c(n(C3CCOCC3)[nH]c2=O)N1` (stereo not drawn): the cytotoxicity at 70.5 h is -23.1%.

With `COC(=O)CC(c1cccs1)c1oc(C)cc(=O)c1O` (stereo not drawn), the cytotoxicity at 70.5 h is -7.87%.

On to `COc1ccc2c(ccn2CC(=O)Nc2n[nH]c(C(C)C)n2)c1`, for which the cytotoxicity at 70.5 h is -12.1%.

For `Cn1cnc2cc(NC(=O)c3n[nH]c4c3CCC4)ccc21`, the cytotoxicity at 70.5 h was -3.46%.

`O=C(NCCc1ccccn1)c1n[nH]c2c1CCC2`: the cytotoxicity at 70.5 h is -5.6%.

Turning to `COCCn1cnc2ccc(NC(=O)c3ccccn3)cc2c1=O`, the cytotoxicity at 70.5 h was -9.53%.

On to `O=C(NC1CCCc2c1[nH]c1ccc(F)cc21)c1n[nH]c2c1CCC2` (stereo not drawn), for which the cytotoxicity at 70.5 h stood at 26.4%.

In the case of `CC(C)c1sc(Cl)nc1C(=O)N1CCN(c2ccccn2)CC1`, the cytotoxicity at 70.5 h was 29.7%.

For the compound `COC(=O)CNC(=O)c1nc(Cl)sc1C(C)C`, the cytotoxicity at 70.5 h came out at 24.5%.

`CN(C)CCCn1cnc2cc(NC(=O)c3n[nH]c4c3CCC4)ccc21`: the cytotoxicity at 70.5 h was -4.15%.

As for `COc1ccc(N2CCN(C(=O)c3nc(Cl)sc3C(C)C)CC2)cc1`, the cytotoxicity at 70.5 h is -18.9%.

Regarding `COc1cn(CC(=O)N2CCN(c3ccc(Cl)cc3)CC2)c(C)cc1=O`, the cytotoxicity at 70.5 h is 23.5%.

For the compound `CCOc1cc(C)nc(N2CCN(C(=O)CN(C)C3CC3)CC2)n1`, the cytotoxicity at 70.5 h was -9.22%.

`CCOc1cc(C)nc(N2CCN(C(=O)c3cc(C)on3)CC2)n1`: the cytotoxicity at 70.5 h was -1.38%.

Consider `CCOc1cc(C)nc(N2CCN(C(=O)c3csnn3)CC2)n1`, for which the cytotoxicity at 70.5 h was -12.5%.

In the case of `c1ccc(Cc2noc(CN3CCOC(Cn4cncn4)C3)n2)cc1` (stereo not drawn), the cytotoxicity at 70.5 h is 12%.

For `Cc1cc(C(=O)N2CCCC(c3cc(C(F)(F)F)[nH]n3)C2)[nH]n1` (stereo not drawn), the cytotoxicity at 70.5 h came to 3.57%.

In the case of `Cc1cc(C(=O)N2CCCC(c3cc(C(F)(F)F)[nH]n3)C2)on1` (stereo not drawn), the cytotoxicity at 70.5 h was -4.58%.

Regarding `Cc1ccc(C(=O)NS(=O)(=O)c2c(Cl)cccc2Cl)c(=O)[nH]1`, the cytotoxicity at 70.5 h was -5.05%.

Take `Cc1ccc(C(=O)NS(=O)(=O)c2ccccc2Br)c(=O)[nH]1`: the cytotoxicity at 70.5 h is -7.74%.

As to `Cn1c(C2CC2)nc2c1CCN(Cc1nc(-c3ccsc3)no1)C2`, the cytotoxicity at 70.5 h is -10.5%.

`Cc1[nH]ncc1C(=O)N1CCCC(c2ccn[nH]2)C1` (stereo not drawn): the cytotoxicity at 70.5 h is -12.2%.

Take `COc1ccc(CCN(C)C2CCCN(Cc3noc(C)n3)C2)cc1` (stereo not drawn): the cytotoxicity at 70.5 h came to 25%.

As to `O=C(CN1CCCC1c1noc(C2CC2)n1)NCCc1ccsc1` (stereo not drawn), the cytotoxicity at 70.5 h turned out to be 4.35%.

In the case of `CC1CN(C)c2ccccc2N(C(=O)c2ccc(=O)n(C)c2)C1` (stereo not drawn), the cytotoxicity at 70.5 h was determined as 6.89%.

Turning to `CN(Cc1nccn1C)C1CCN(CCc2ccccn2)CC1`, the cytotoxicity at 70.5 h came out at 0.568%.

Turning to `COCCN1CCN(CCS(C)(=O)=O)CC1C` (stereo not drawn), the cytotoxicity at 70.5 h amounted to 8.39%.

Turning to `N#Cc1cc(F)ccc1CN1CCCC1Cn1cccn1` (stereo not drawn), the cytotoxicity at 70.5 h is -5.11%.

Consider `COc1c(C2CCCN2CC(=O)Nc2cc(C)on2)c(C)nn1C` (stereo not drawn), for which the cytotoxicity at 70.5 h was 12.2%.

For `COCCCN1CCN(CCOC)C(C)C1` (stereo not drawn), the cytotoxicity at 70.5 h was 0.867%.

Turning to `N#Cc1ccc(CN2CCCCC2Cn2cccn2)cc1` (stereo not drawn), the cytotoxicity at 70.5 h worked out at 16%.

For the compound `Cc1ncc(CNCCO)c2cc(C(=O)c3ccc(Br)cc3)oc12`, the cytotoxicity at 70.5 h is -18%.

As to `Cc1ncc(CNCC(C)O)c2cc(C(=O)c3ccc(Br)cc3)oc12` (stereo not drawn), the cytotoxicity at 70.5 h was -16.1%.
